Test results published in ChEMBL document CHEMBL1139729, “Separation of anti-angiogenic and cytotoxic activities of borrelidin by modification at the C17 side chain” (Bioorg Med Chem Lett, 2006).
The source made the active and inactive calls. The calls are words filed in the database; no cut-off is given here.

What was measured:
[1] = system: MCF7; test: Antiproliferative activity against MCF7 cell line at 3 uM; type: functional; conditions: Homo sapiens
[2] = Antiproliferative activity against 251L cell line at 3 uM; type: functional; conditions: Homo sapiens
[3] = Antiproliferative activity against 394NL cell line at 3 uM; type: functional; conditions: Homo sapiens
[4] = system: DU-145; test: Antiproliferative activity against DU145 cell line at 3 uM; type: functional; conditions: Homo sapiens
[5] = system: NCI-H460; test: Antiproliferative activity against H460 cell line at 3 uM; type: functional; conditions: Homo sapiens
[6] = system: LNCaP; test: Antiproliferative activity against LNCAP cell line at 3 uM; type: functional; conditions: Homo sapiens
[7] = system: A498; test: Antiproliferative activity against A498 cell line at 3 uM; type: functional; conditions: Homo sapiens
[8] = system: OVCAR-3; test: Antiproliferative activity against OVCAR-3 cell line at 3 uM; type: functional; conditions: Homo sapiens
[9] = system: SF-268; test: Antiproliferative activity against SF268 cell line at 3 uM; type: functional; conditions: Homo sapiens
[10] = Antiproliferative activity against 1138L cell line at 3 uM; type: functional; conditions: Homo sapiens
[11] = Antiproliferative activity against MDA231 cell line at 3 uM; type: functional; conditions: Homo sapiens, MDA-MB-231
[12] = Antiproliferative activity against MDA467 cell line at 3 uM; type: functional; conditions: Homo sapiens
[13] = (§1) Antiproliferative activity against 394NL cell line at 10 uM; type: functional; conditions: Homo sapiens; values are per cent of control
[14] = (§2) Antiproliferative activity against MDA231 cell line at 10 uM; type: functional; conditions: Homo sapiens, MDA-MB-231; values are per cent of control
[15] = system: HUVEC; test: Inhibition of HUVEC tubule formation assessed as number of branches at 0.75 pM; type: functional, Homo sapiens
[16] = system: HUVEC; test: Inhibition of HUVEC tubule formation assessed as number of branches at 0.25 pM; type: functional, Homo sapiens
[17] = system: SF-268; test: Antiproliferative activity against SF268 cell line at 10 uM; type: functional; conditions: Homo sapiens
[18] = (§3) Antiproliferative activity against 1138L cell line at 10 uM; type: functional; conditions: Homo sapiens; values are per cent of control
[19] = system: LNCaP; test: Antiproliferative activity against LNCAP cell line at 10 uM; type: functional; conditions: Homo sapiens
[20] = Antiproliferative activity against NCI60 cell line; type: functional, cell-based; conditions: Homo sapiens
[21] = system: OVCAR-3; test: Antiproliferative activity against OVCAR-3 cell line at 10 uM; type: functional; conditions: Homo sapiens
[22] = system: HUVEC; test: Inhibition of HUVEC tubule formation assessed as length of branches at 0.25 pM; type: functional, Homo sapiens
[23] = system: NCI-H460; test: Antiproliferative activity against H460 cell line at 10 uM; type: functional; conditions: Homo sapiens
[24] = system: HUVEC; test: Growth inhibition in HUVEC; type: functional, cell-based; conditions: Homo sapiens
[25] = Maximum tolerated dose in iv dosed nude mouse; type: ADME, organism-based; conditions: in vivo
[26] = (§4) Antiproliferative activity against MDA467 cell line at 10 uM; type: functional; conditions: Homo sapiens; values are per cent of control
[27] = (§5) Antiproliferative activity against 251L cell line at 10 uM; type: functional; conditions: Homo sapiens; values are per cent of control
[28] = system: MCF7; test: Antiproliferative activity against MCF7 cell line at 10 uM; type: functional; conditions: Homo sapiens
[29] = system: HUVEC; test: Inhibition of HUVEC tubule formation assessed as length of branches at 0.75 pM; type: functional, Homo sapiens
[30] = system: DU-145; test: Antiproliferative activity against DU145 cell line at 10 uM; type: functional; conditions: Homo sapiens
[31] = system: A498; test: Antiproliferative activity against A498 cell line at 10 uM; type: functional; conditions: Homo sapiens
[32] = species: Homo sapiens; test: as §1; type: functional
[33] = system: MDA-MB-231; test: as §2; type: functional; conditions: Homo sapiens
[34] = species: Homo sapiens; test: as §3; type: functional
[35] = species: Homo sapiens; test: as §4; type: functional
[36] = species: Homo sapiens; test: as §5; type: functional
[37] = system: HUVEC; test: Inhibition of HUVEC tubule formation assessed as length of branches at 25 pM; type: functional, Homo sapiens
[38] = system: HUVEC; test: Inhibition of HUVEC tubule formation assessed as number of branches at 75 pM; type: functional, Homo sapiens
[39] = system: HUVEC; test: Inhibition of HUVEC tubule formation assessed as number of branches at 25 pM; type: functional, Homo sapiens
[40] = system: HUVEC; test: Inhibition of HUVEC tubule formation assessed as length of branches at 75 pM; type: functional, Homo sapiens
[41] = system: HUVEC; test: Inhibition of HUVEC tubule formation assessed as number of branches at 10 nM; type: functional, Homo sapiens
[42] = system: HUVEC; test: Inhibition of HUVEC tubule formation assessed as number of branches at 100 nM; type: functional, Homo sapiens
[43] = system: HUVEC; test: Inhibition of HUVEC tubule formation assessed as length of branches at 10 nM; type: functional, Homo sapiens
[44] = system: HUVEC; test: Inhibition of HUVEC tubule formation assessed as length of branches at 100 nM; type: functional, Homo sapiens

## COc1cccc2c1C(=O)c1c(O)c3c(c(O)c1C2=O)C[C@@](O)(C(=O)CO)C[C@@H]3O[C@H]1C[C@H](N)[C@H](O)[C@H](C)O1 [DOXORUBICIN]
[1]
  inhibition at 3 µM: 12%
[2]
  inhibition at 3 µM: 15%
[3]
  inhibition at 3 µM: 6%
[4]
  inhibition at 3 µM: 5%
[5]
  inhibition at 3 µM: 3%
[6]
  inhibition at 3 µM: 10%
[7]
  inhibition at 3 µM: 11%
[8]
  inhibition at 3 µM: 10%
[9]
  inhibition at 3 µM: 9%
[10]
  inhibition at 3 µM: 6%
[11]
  inhibition at 3 µM: 11%
[12]
  inhibition at 3 µM: 7%

## C[C@@H]1C[C@H](C)C[C@H](C)[C@@H](O)CC(=O)O[C@H]([C@@H]2CC[C@H]2C(=O)O)C/C=C/C=C(/C#N)[C@H](O)[C@@H](C)C1
[13]
  growth, % of control at 10 µM: 3%
[14]
  growth, % of control at 10 µM: 8%
[15]
  Activity: 40
[16]
  Activity: 38
[17]
  inhibition at 10 µM: 4%
[18]
  growth, % of control at 10 µM: 3%
[19]
  inhibition at 10 µM: 9%
[20]
  IC50: 300 nM
[21]
  inhibition at 10 µM: 16%
[22]
  Activity: 65
[23]
  inhibition at 10 µM: 7%
[24]
  IC50: 500 nM
[25]
  MTD: > 130 mg/kg
[26]
  growth, % of control at 10 µM: 6%
[27]
  growth, % of control at 10 µM: 9%
[28]
  inhibition at 10 µM: 9%
[29]
  Activity: 63
[30]
  inhibition at 10 µM: 16%
[31]
  inhibition at 10 µM: 9%

## C[C@@H]1C[C@H](C)C[C@H](C)[C@@H](O)CC(=O)O[C@H](C[C@H](C)C(=O)O)C/C=C/C=C(/C#N)[C@H](O)[C@@H](C)C1
[13]
  growth, % of control at 10 µM: 67%
[14]
  growth, % of control at 10 µM: 90%
[17]
  inhibition at 10 µM: 57%
[18]
  growth, % of control at 10 µM: 56%
[19]
  inhibition at 10 µM: 92%
[21]
  inhibition at 10 µM: 91%
[23]
  inhibition at 10 µM: 84%
[26]
  growth, % of control at 10 µM: 62%
[27]
  growth, % of control at 10 µM: 81%
[28]
  inhibition at 10 µM: 76%
[30]
  inhibition at 10 µM: 74%
[31]
  inhibition at 10 µM: 78%

## C/C1=C/C=C/C[C@@H]([C@@H]2CCC[C@H]2C(=O)O)OC(=O)C[C@H](O)[C@@H](C)C[C@@H](C)C[C@@H](C)C[C@H](C)[C@H]1O
[32]
  Activity: inactive
[33]
  Activity: inactive
[17]
  Activity: inactive
[34]
  Activity: inactive
[19]
  Activity: inactive
[21]
  Activity: inactive
[23]
  Activity: inactive
[24]
  Activity: inactive
[35]
  Activity: inactive
[36]
  Activity: inactive
[28]
  Activity: inactive
[30]
  Activity: inactive
[31]
  Activity: inactive

## C[C@@H]1C[C@H](C)C[C@H](C)[C@@H](O)CC(=O)O[C@H]([C@H](C)CC(=O)O)C/C=C/C=C(/C#N)[C@H](O)[C@@H](C)C1
[13]
  growth, % of control at 10 µM: 9%
[14]
  growth, % of control at 10 µM: 20%
[17]
  inhibition at 10 µM: 13%
[18]
  growth, % of control at 10 µM: 5%
[19]
  inhibition at 10 µM: 24%
[21]
  inhibition at 10 µM: 32%
[23]
  inhibition at 10 µM: 38%
[26]
  growth, % of control at 10 µM: 15%
[27]
  growth, % of control at 10 µM: 26%
[28]
  inhibition at 10 µM: 12%
[30]
  inhibition at 10 µM: 55%
[31]
  inhibition at 10 µM: 21%

## C[C@@H]1C[C@H](C)C[C@H](C)[C@@H](O)CC(=O)O[C@H]([C@H](C)[C@H](C)C(=O)O)C/C=C/C=C(/C#N)[C@H](O)[C@@H](C)C1
[37]
  Activity: 62
[13]
  growth, % of control at 10 µM: 4%
[14]
  growth, % of control at 10 µM: 7%
[17]
  inhibition at 10 µM: 3%
[38]
  Activity: 246
[18]
  growth, % of control at 10 µM: 3%
[19]
  inhibition at 10 µM: 7%
[39]
  Activity: 116
[20]
  IC50: 70 nM
[21]
  inhibition at 10 µM: 6%
[23]
  inhibition at 10 µM: 3%
[24]
  IC50: 1 nM
[26]
  growth, % of control at 10 µM: 7%
[27]
  growth, % of control at 10 µM: 12%
[28]
  inhibition at 10 µM: 9%
[30]
  inhibition at 10 µM: 7%
[40]
  Activity: 63
[31]
  inhibition at 10 µM: 9%

## C[C@@H]1C[C@H](C)C[C@H](C)[C@@H](O)CC(=O)O[C@H]([C@@H]2CCC[C@H]2C(=O)O)C/C=C/C=C(/C#N)[C@H](O)[C@@H](C)C1 [BORRELIDIN]
[41]
  Activity: 230
[13]
  growth, % of control at 10 µM: 2%
[14]
  growth, % of control at 10 µM: 12%
[17]
  inhibition at 10 µM: 3%
[18]
  growth, % of control at 10 µM: 2%
[19]
  inhibition at 10 µM: 7%
[20]
  IC50: 20 nM
[21]
  inhibition at 10 µM: 11%
[42]
  Activity: 233
[23]
  inhibition at 10 µM: 4%
[24]
  IC50: 0.5 nM
[43]
  Activity: 64
[26]
  growth, % of control at 10 µM: 6%
[27]
  growth, % of control at 10 µM: 8%
[28]
  inhibition at 10 µM: 13%
[44]
  Activity: 65
[30]
  inhibition at 10 µM: 5%
[31]
  inhibition at 10 µM: 8%

## CS[C@H](C[C@@H]1C/C=C/C=C(/C#N)[C@H](O)[C@@H](C)C[C@H](C)C[C@H](C)C[C@H](C)[C@@H](O)CC(=O)O1)C(=O)O
[13]
  growth, % of control at 10 µM: 64%
[14]
  growth, % of control at 10 µM: 81%
[17]
  inhibition at 10 µM: 54%
[18]
  growth, % of control at 10 µM: 42%
[19]
  inhibition at 10 µM: 59%
[21]
  inhibition at 10 µM: 102%
[23]
  inhibition at 10 µM: 79%
[26]
  growth, % of control at 10 µM: 59%
[27]
  growth, % of control at 10 µM: 67%
[28]
  inhibition at 10 µM: 48%
[30]
  inhibition at 10 µM: 75%
[31]
  inhibition at 10 µM: 68%

## C[C@@H]1C[C@H](C)C[C@H](C)[C@@H](O)CC(=O)O[C@H](C[C@@H](C)C(=O)O)C/C=C/C=C(/C#N)[C@H](O)[C@@H](C)C1
[13]
  growth, % of control at 10 µM: 9%
[14]
  growth, % of control at 10 µM: 26%
[17]
  inhibition at 10 µM: 14%
[18]
  growth, % of control at 10 µM: 6%
[19]
  inhibition at 10 µM: 34%
[21]
  inhibition at 10 µM: 29%
[23]
  inhibition at 10 µM: 49%
[26]
  growth, % of control at 10 µM: 25%
[27]
  growth, % of control at 10 µM: 32%
[28]
  inhibition at 10 µM: 16%
[30]
  inhibition at 10 µM: 68%
[31]
  inhibition at 10 µM: 30%
